Experiments:
Staphylococcus aureus [1] = test: Antibacterial activity against methicillin-resistant Staphylococcus aureus ATCC BAA-44 assessed as growth inhibition by broth microdilution method; assay type: functional
Acinetobacter baumannii [2] = test: Antibacterial activity against multidrug-resistant Acinetobacter baumannii ATCC BAA-1605 assessed as inhibition of biofilm growth after 24 hrs by crystal violet reporter assay; assay type: functional, organism-based
Staphylococcus aureus [3] = test: Antibacterial activity against methicillin-resistant Staphylococcus aureus ATCC BAA-44 assessed as reduction of oxacillin MIC at 25% MIC by broth microdilution method relative to oxacillin-treated control; assay type: functional
Staphylococcus aureus [4] = test: Antibacterial activity against methicillin-resistant Staphylococcus aureus ATCC BAA-44 assessed as dispersion of preformed biofilm after 24 hrs by crystal violet reporter assay; assay type: functional, organism-based; details: ATCC BAA-44, 24 h
Staphylococcus aureus [5] = test: Antibacterial activity against methicillin-resistant Staphylococcus aureus ATCC BAA-44 assessed as inhibition of biofilm growth after 24 hrs by crystal violet reporter assay; assay type: functional, organism-based; details: ATCC BAA-44, 24 h
Acinetobacter baumannii [6] = test: Antibacterial activity against multidrug-resistant Acinetobacter baumannii ATCC BAA-1605 assessed as growth inhibition by broth microdilution method; assay type: functional
[7] = Acinetobacter baumannii, ATCC BAA-1605, 24 h, read-out: IC50

| SMILES | MIC (Staphylococcus aureus [1]) | IC50 (Acinetobacter baumannii [2]; [7]) | fold change (FC) (Staphylococcus aureus [3]) | EC50 (Staphylococcus aureus [4]) | IC50 (Staphylococcus aureus [5]) | MIC (Acinetobacter baumannii [6]) | IC50 (Acinetobacter baumannii [2]) |
| --- | --- | --- | --- | --- | --- | --- | --- |
| CCCCCCn1cc(CCCCCc2cn(CCNC(=O)c3ccc(CCCCC)cc3)nn2)nc1N.Cl | 12.5 µM | 26.2 µM | 0 | 41 µM | 6.2 µM | 100 µM |  |
| CCCCCc1ccc(C(=O)NCCn2cc(CCCCCc3c[nH]c(N)n3)nn2)cc1.Cl |  |  | 4 |  |  |  |  |
| CCCCCc1ccc(C(=O)NCCn2cc(CCCCCc3cn(C4CCCCC4)c(N)n3)nn2)cc1.Cl | 25 µM |  | 2 |  | 18.7 µM | 200 µM | ND(toxic) |
| C=CCn1cc(CCCCCc2cn(CCNC(=O)c3ccc(CCCCC)cc3)nn2)nc1N.Cl | 50 µM |  | 2 |  | 13.2 µM | 200 µM | ND(toxic) |
| CCCCCc1ccc(C(=O)NCCn2cc(CCCCCc3cn(CC(C)C)c(N)n3)nn2)cc1.Cl | 50 µM | 98.6 µM | 4 |  | 24 µM | 200 µM |  |
| CCCCCc1ccc(C(=O)NCCn2cc(CCCCCc3cn(C(C)C)c(N)n3)nn2)cc1.Cl | 200 µM |  | 0 |  | > 100 µM | > 200 µM | ND(toxic) |
| CCCCCc1ccc(C(=O)NCCn2cc(CCCCCc3cn(CCCC)c(N)n3)nn2)cc1.Cl | 25 µM | 53.8 µM | 0 |  | 10.8 µM | 100 µM |  |
| CCCCCc1ccc(C(=O)NCCn2cc(CCCCCc3cn(Cc4ccccc4)c(N)n3)nn2)cc1.Cl | 12.5 µM | 33.9 µM | 0 | 39.6 µM | 7.16 µM | 100 µM |  |
| CCCCCc1ccc(C(=O)NCCn2cc(CCCCCc3cn(C4CC4)c(N)n3)nn2)cc1.Cl | 100 µM |  | 2 |  | > 100 µM | > 200 µM | ND(toxic) |
| CCCCCc1ccc(C(=O)NCCn2cc(CCCCCc3cn(C4CCCC4)c(N)n3)nn2)cc1.Cl | 25 µM | 33.7 µM | 2 | 34.5 µM | 9.01 µM | 100 µM |  |
| CCCCCc1ccc(C(=O)NCCn2cc(CCCCCc3cn(CCc4ccccc4)c(N)n3)nn2)cc1.Cl | 25 µM | 39.2 µM | 0 | 33 µM | 9.9 µM | 100 µM |  |
| CCCCCc1ccc(C(=O)NCCn2cc(CCCCCc3cn(-c4ccccc4)c(N)n3)nn2)cc1.Cl | 25 µM | 49.8 µM | 0 |  | 25.1 µM | > 200 µM |  |
| CCCCCc1ccc(C(=O)NCCn2cc(CCCCCc3cn(CCCCC)c(N)n3)nn2)cc1.Cl | 12.5 µM | 31.4 µM | 0 | 45.1 µM | 4.14 µM | 100 µM |  |

Reference: ChEMBL document CHEMBL2331213, “A flexible approach to 1,4-di-substituted 2-aminoimidazoles that inhibit and disperse biofilms and potentiate the effects of β-lactams against multi-drug resistant bacteria” (Eur J Med Chem, 2013)
